Test results published in paper PMC12186697, “HypoxyStat, a small-molecule form of hypoxia therapy that increases oxygen-hemoglobin affinity” (Cell, 2025).
Several values for one entry are separate records, joined by “and”; a condition that tells them apart may be missing. Identical values can stand only once.

Legend:
[1] = tested on: Ndufs4 KO mouse; assay: Ndufs4 KO mouse model of Leigh syndrome (survival, body weight, temperature, behavior, neuropathology); assay type: in vivo
Source text: We continuously bred Ndufs4 Het x Het mice to generate KO and controls for our experiments. Ndufs4+/− and WT mice were used as controls as they are identical in all previously reported assays. Ndufs4 mice were obtained directly from Jackson labs (#027058). Pups were weaned and genotyped at ~21 d after birth. The age of mice at the time of experiments is described throughout the text. Male and female mice were used throughout studies. All cages were provided with food and water, with hydrated gel provided to newly weaned cages. Body weights were recorded at every dosing. Mice were euthanized according to guidelines at 20% drop in peak body weight. All animal studies were approved by the Institutional Animal Care & Use Committee (IACUC) Program at UCSF/Gladstone.
Mice were administered HypoxyStat at 600 mg/kg every other day or 400mg/kg daily via oral gavage. For the disease prevention experiments, KO mice that underwent daily dosing were dosed starting ~P30 for 1 week of 200mg/kg daily, followed by 400mg/kg daily to allow for gradual dose escalation. For the reversal study, KO mice were dosed once with 200mg/kg on postnatal day ~P55, followed by 400mg/kg daily. HypoxyStat was formulated as a suspension at 60 mg/mL, 40mg/ml or 80mg/ml depending on dose in 0.5%HPMC and stored at 4 °C. The formulation was determined to be stable for at least 8 weeks. Animal body weight was taken at time of dosing to determine appropriate dosing volume (10 mL/kg for every other day dosing, 5ml/kg for daily dosing). Vehicle treated mice were administered the same volume of 0.5% HPMC.
Mice were euthanized via CO2 inhalation. To perfuse the whole body, the right atrium was nicked and a needle was inserted into the left ventricle. Ice-cold PBS was slowly injected first, followed immediately by 4% PFA solution. The brain was removed, stored in 4% PFA for 24–48 h, and then washed with PBS for 5 min (3 times). The brains were placed in 70% ethanol followed by paraffin embedding. For paraffin sections, brains were sagittally sectioned at 5 μm thickness. Prior to staining, sections were deparaffinized. Antigen retrieval was performed by heating the slides to boiling temperature in 10 mM sodium citrate solution (pH 6) in a microwave, followed by heating for 10 minutes. The sections were rinsed 3 times for 5 minutes each with PBS. They were then incubated in a blocking solution containing 5% donkey serum (DS) in PBS-Tx (PBS with 0.2% Triton X-100) for 60 minutes at room temperature. After blocking, sections were incubated overnight at 4C with the primary antibody IBA1 (Genetex GTX100042, 1:250) and NeuN (Sigma, MAB377, 1:500). Afterward, the sections were rinsed 3 times for 5 minutes with PBS-Tx. Next, they were incubated with a fluorophore-conjugated secondary antibodies (Invitrogen, A21206 or A31570) for 1 hour at room temperature. Following secondary antibody incubation, the sections were rinsed 3 times for 5 minutes with PBS-Tx, and then once for 5 minutes with PBS. Histology was quantified using either the percentage of Iba1+ positive signal or blinded scoring (on the scale of 1–5).
The open field instrument (San Diego Instruments) was used to measure spontaneous locomotor activity. Mice were placed in open field chambers and allowed to acclimate for 5 min before movement tracking for 20min. Spontaneous locomotor activity was measured based on beam breaks and recorded by the instrument. Age of measurements is +/− 5 days for practical purposes without any age bias between groups.

[2] = tested on: hypoxia transcriptional response (HIF); assay: Hypoxia biomarkers in mice (plasma Epo, hematocrit, blood glucose, hypoxia-induced brain transcripts); assay type: in vivo, mouse; settings: GBT-440
Description: Plasma Epo measurements were performed with R&D Systems Epo Elisa Kit (MEP00B) according to manufacturer directions. Briefly, whole blood was collected with anticoagulant before centrifugation within 30 minutes of collection and stored at −80C until day of analysis. On the day of Epo assay, samples were thawed and diluted 2-fold and incubated in the assay plate for two hours. Each well was washed five times before the addition of Epo Conjugate followed by a two-hour incubation. Each well was washed five times before adding Substrate Solution to develop for 30 minutes before addition of Stop Solution. The optical density of each well was determined at 450nm and correction wavelength of 540/570.
Hematocrit was determined with an iStat VetScan 1 with Zoetis Chem 8+ cartridges. Blood glucose measurements were performed using OneTouch UltraPlus glucometer. Whole blood chemistry measurements were performed on a VetScan HM5.
Half of the hindbrain was collected at necropsy and immediately flash frozen. For RNA extraction, a stainless-steel bead (Qiagen) and 1 mL TRIzol™ Reagent (Thermo Fisher Scientific) were added to the frozen samples, which were rapidly lysed using a tissue lyser (Qiagen) for five 1-minute cycles of 30 Hz frequency. Subsequent steps for RNA isolation were identical as previously described.[9] Reverse transcription was performed using the QuantiTect Reverse Transcription Kit (Qiagen) instructions. Briefly, gDNA was wiped out from samples containing 1 μg RNA. gDNA-free RNA samples were reverse transcribed following Qiagen’s instructions. […] For each set of triplicates, an average CT value was obtained, and the difference in average CT between the target gene and β-actin was calculated (ΔCT). Next, the difference in ΔCT value between each sample and the average of the normoxia samples was calculated (ΔΔCT). Relative expression of each gene was determined by calculating 2^−ΔΔCT.

[3] = set-up: method as in PMID 28337324; settings: Figure 2A, cited from earlier work
[4] = biological target: T1, hemoglobin (Hb) in human red blood cells (Homo sapiens, UniProt P69905); assay: Oxy-hemoglobin dissociation curve (Hemox Analyzer), p50; assay type: biochemical
T1 construct: incubated for at least one hour at 37C with whole blood before Hemox analysis; endogenous in cells; host or cells: human red blood cells / whole blood
Description: One of the most extensively studied compounds for sickle cell anemia is GBT-440 (Voxelotor) (Figure 1B).[25] The extent of left-shifting can be assessed by determining the p50 or the partial pressure of oxygen at which half of the total Hb pool is bound to oxygen. We incubated human red blood cells with GBT-440 and observed a ~75% decrease in p50 (from ~28 to ~7 mmHg), consistent with previously reported values (Figure 1D). Experiments were performed using a HemOx analyzer that monitors oxygen saturation via Hb absorbance across a range of dissolved oxygen tensions. Upon further review of the sickle cell anemia literature, we found another compound, hereafter termed HypoxyStat (Figure 1B), which appeared to have a similar p50 as GBT-440.[26] We confirmed that HypoxyStat induced an ~82% decrease in p50 (Figure 1D).
Oxy-hemoglobin dissociation analysis was performed by the UCSF RBC laboratory using the TCS Hemox Analyzer (TCS Medical Products Company, Huntington Valley, PA). Initial pO2 is set to 160 mmHg. Hemoglobin is fully oxygenated under these conditions (HbO% =100). Replacement of air with nitrogen lowers pO2 and is measured by Clark electrode along with the change in the absorbance spectrum of hemoglobin. At a pO2 of 0 mmHg, hemoglobin is fully deoxygenated (HbO% =0). The relation between pO2 and HbO% is plotted, and the pO2 at which HbO% = 50% is defined as P50. The typical sigmoid de-oxygenation curve of normal blood with a P50 of 26–28 mmHg is used as a control for incubation conditions and to ensure proper function of the Hemox analyzer. For left-shifter comparison, the compounds were dissolved in HEPES buffered saline and then incubated for at least one hour at 37C with whole blood before Hemox analysis. A control of whole blood incubated with vehicle is also reported.

[5] = tested on: Hb; set-up: method as in PMID 28337324; settings: Figure 2A; cited from earlier work
[6] = GBT-440 daily maximal dosing from P30

T1 sequence (P69905 2-142 limits assumed): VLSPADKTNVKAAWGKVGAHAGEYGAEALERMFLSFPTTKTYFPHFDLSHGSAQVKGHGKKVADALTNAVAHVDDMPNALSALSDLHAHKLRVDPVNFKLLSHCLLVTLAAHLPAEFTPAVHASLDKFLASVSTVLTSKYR
T1 sequence (P68871 2-147 partner limits assumed): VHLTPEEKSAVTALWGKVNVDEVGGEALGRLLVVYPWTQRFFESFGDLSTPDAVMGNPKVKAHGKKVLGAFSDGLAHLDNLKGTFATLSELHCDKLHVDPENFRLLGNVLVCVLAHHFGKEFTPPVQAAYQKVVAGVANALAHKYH

CC(C)n1nccc1-c1ncccc1COc1cccc(O)c1C=O [GBT-440]
lifespan of Ndufs4 KO mice vs vehicle ([1]; GBT-440 daily maximal dosing (400 mg/kg after 1 week at 200 mg/kg) from P30): did not result in a significant lifespan extension
spontaneous movement (open field), Ndufs4 KO mice [1, 6]: failed to rescue
time on an accelerating rotating rod, Ndufs4 KO mice [1, 6]: failed to rescue
body temperature of Ndufs4 KO mice ([1]; GBT-440 daily maximal dosing from P30, ~P55): failed to rescue
hypoxia biomarker response compared with HypoxyStat and inhaled hypoxia [2]: significantly blunted response
Mouse PO blood:plasma ([3]; PO): 63.2
Mouse PO half-life ([3]; PO): 15.8 h
Cmax ([3]; mouse): 2210 nM
p50 ([4]; human red blood cells incubated 1 h with 10 mM compound, vehicle ~28 mmHg): 7.2 mmHg and ~ 7 mmHg
decrease in p50 ([4]; human red blood cells incubated with compound, vs vehicle): ~ 75%
Hb occupancy [5]: 6.5%
